Data taken from the OligoGym collection.
“And” between values parts separate entries of the source, which are not always exact repeats. Identical values can stand only once. After the bases stand the sugars from the 5' end (letter, count) and the backbone: PS all phosphorothioate, else s phosphorothioate and o phosphodiester by linkage. Methylation of C is not given here. e = 2'-O-(2-methoxyethyl) (MOE); l = locked nucleic acid (LNA); k = constrained ethyl (cEt); d = 2'-deoxy (DNA)

Key:
[1] = target: SNHG14; conditions: ASO, Human Neuronal Cell
[2] = target: SOD1; conditions: ASO

Question: How did the target mRNA inhibition ([1]; 7.5 µM) turn out when “AGTTCTACTATACTTTC (sugars llddlddddddldllll, PS)” was run?
Answer: The target mRNA inhibition was 18%.

Question: How did the target mRNA inhibition ([1]; 7.5 µM) turn out when “AGTTCTACTATACTTTCC (sugars ldlddddddddddlddll, PS)” was run?
Answer: The target mRNA inhibition was 61%.

Question: Which results are given for “ATAACATTACTCTTAACA (sugars l3 d12 l3, PS)”?
Answer: target mRNA inhibition ([1]; 0.2 µM): 22%; target mRNA inhibition ([1]; 1 µM): 40%

Question: How did the target mRNA inhibition ([1]; 0.2 µM) turn out when “ATACCTTTCTTTAACCC (sugars l4 d11 l2, PS)” was run?
Answer: Its target mRNA inhibition is 60%.

Question: What about the target mRNA inhibition ([1]; 1 µM) of the same sequence?
Answer: Its target mRNA inhibition is 67%.

Question: Which results are given for “ATATCCCTTGATTATCC (sugars l3 d11 l3, PS)”?
Answer: target mRNA inhibition ([1]; 0.2 µM): 16%; target mRNA inhibition ([1]; 1 µM): 18%

Question: With “ATATTGATTCAATTCCC (sugars l1 d1 l2 d8 l5, PS)” as the sequence, how does the target mRNA inhibition ([1]; 7.5 µM) read?
Answer: Its target mRNA inhibition is 64%.

Question: For “ATATTGATTCAATTCCC (sugars l4 d7 l1 d3 l2, PS)”, which target mRNA inhibition ([1]; 7.5 µM) is on record?
Answer: The target mRNA inhibition was 67%.

Question: With “ATATTGATTCAATTCCC (sugars llldldddddddlddll, PS)” as the sequence, how does the target mRNA inhibition ([1]; 7.5 µM) read?
Answer: The target mRNA inhibition was 52%.

Question: For “ATCATTCTCAACAATTAA (sugars l1 d1 l4 d6 l6, PS)”, which target mRNA inhibition ([1]; 7.5 µM) is on record?
Answer: The target mRNA inhibition was 4%.

Question: How did the target mRNA inhibition ([1]; 7.5 µM) turn out when “ATCATTCTCAACAATTAA (sugars l4 d8 l1 d1 l4, PS)” was run?
Answer: The target mRNA inhibition was 53%.

Question: How did the target mRNA inhibition ([1]; 7.5 µM) turn out when “ATCATTCTCAACAATTAA (sugars l5 d8 l1 d1 l3, PS)” was run?
Answer: Its target mRNA inhibition is 59%.

Question: “ATCATTCTCAACAATTAAA (sugars l5 d8 l2 d2 l2, PS)” was tested. Which target mRNA inhibition ([1]; 7.5 µM) did it give?
Answer: The target mRNA inhibition was 57%.

Question: How did the target mRNA inhibition ([1]; 0.2 µM) turn out when ATCCAAAGTTTCTTTC (sugars l4 d10 l2, PS) was run?
Answer: Its target mRNA inhibition is 43%.

Question: And the target mRNA inhibition ([1]; 1 µM)?
Answer: The target mRNA inhibition was 34%.

Question: With ATCCTATGTTAATACT (sugars l4 d10 l2, PS) as the sequence, how does the target mRNA inhibition ([1]; 0.2 µM) read?
Answer: Its target mRNA inhibition is 14%.

Question: And the target mRNA inhibition ([1]; 1 µM)?
Answer: Its target mRNA inhibition is 33%.

Question: With ATCCTGATAATTAACT (sugars l4 d10 l2, PS) as the sequence, how does the target mRNA inhibition ([1]; 0.2 µM) read?
Answer: Its target mRNA inhibition is -8%.

Question: What about the target mRNA inhibition ([1]; 1 µM) of the same sequence?
Answer: The target mRNA inhibition was 5%.

Question: “ATCTCATGACCACCTAA (sugars l3 d10 l1 d1 l2, PS)” was tested. Which target mRNA inhibition ([1]; 7.5 µM) did it give?
Answer: The target mRNA inhibition was 60%.

Question: Which target mRNA inhibition ([1]; 7.5 µM) does the source give for “ATCTCATGACCACCTAA (sugars ldldddddddddldlll, PS)” here?
Answer: The target mRNA inhibition was 61%.

Question: With “ATCTCATGACCACCTAA (sugars ldlddddddddlddlll, PS)” as the sequence, how does the target mRNA inhibition ([1]; 7.5 µM) read?
Answer: Its target mRNA inhibition is 52%.

Question: Which target mRNA inhibition ([1]; 0.2 µM) does the source give for ATCTGATCTCACACAT (sugars l3 d10 l3, PS) here?
Answer: The target mRNA inhibition was 22%.

Question: And the target mRNA inhibition ([1]; 1 µM)?
Answer: Its target mRNA inhibition is 40%.

Question: How did the target mRNA inhibition ([1]; 7.5 µM) turn out when “ATCTTTCCATTTATTTCCA (sugars lddlddddddddddlddll, PS)” was run?
Answer: Its target mRNA inhibition is 44%.

Question: With “ATCTTTCCATTTATTTCCAT (sugars l1 d16 l3, PS)” as the sequence, how does the target mRNA inhibition ([1]; 7.5 µM) read?
Answer: The target mRNA inhibition was 15%.

Question: How did the target mRNA inhibition ([1]; 0.2 µM) turn out when ATGCTCACACTAATTA (sugars l4 d10 l2, PS) was run?
Answer: Its target mRNA inhibition is 35%.

Question: What about the target mRNA inhibition ([1]; 1 µM) of the same sequence?
Answer: The target mRNA inhibition was 48%.

Question: “ATTGATTCAATTCCCTT (sugars ldldldddddddlldll, PS)” was tested. Which target mRNA inhibition ([1]; 7.5 µM) did it give?
Answer: Its target mRNA inhibition is 65%.

Question: How did the target mRNA inhibition ([1]; 7.5 µM) turn out when “ATTGATTCAATTCCCTT (sugars llddlddddddddldll, PS)” was run?
Answer: Its target mRNA inhibition is 64%.

Question: Which target mRNA inhibition ([1]; 7.5 µM) does the source give for “ATTGATTCAATTCCCTT (sugars llddldddddddldlll, PS)” here?
Answer: The target mRNA inhibition was 50%.

Question: For “ATTTACACTTAATTATACTT (sugars ldllddlddddddlllldll, PS)”, which target mRNA inhibition ([1]; 7.5 µM) is on record?
Answer: Its target mRNA inhibition is 12%.

Question: Which target mRNA inhibition ([1]; 7.5 µM) does the source give for “ATTTACACTTAATTATACTT (sugars lldlddlddddddllldlll, PS)” here?
Answer: The target mRNA inhibition was 10%.

Question: “ATTTATTTCCATTTATTTTC (sugars lldldlddddddddldldll, PS)” was tested. Which target mRNA inhibition ([1]; 7.5 µM) did it give?
Answer: The target mRNA inhibition was 55%.

Question: How did the target mRNA inhibition ([2]; A431, 0.12 µM) turn out when “TTTAATGTTTATCAGG (sugars kekeddddddddekek, linkages s1 o3 s8 o1 s2)” was run?
Answer: Its target mRNA inhibition is 15%.

Question: And the target mRNA inhibition ([2]; A431, 0.6 µM)?
Answer: The target mRNA inhibition was 44%.

Question: And the target mRNA inhibition ([2]; A431, 3 µM)?
Answer: Its target mRNA inhibition is 73%.

Question: And the target mRNA inhibition ([2]; A431, 15 µM)?
Answer: The target mRNA inhibition was 85%.

Question: And the target mRNA inhibition ([2]; HepG2, 0.222 µM)?
Answer: The target mRNA inhibition was 73%.

Question: And the target mRNA inhibition ([2]; HepG2, 0.667 µM)?
Answer: The target mRNA inhibition was 90%.

Question: What about the target mRNA inhibition ([2]; HepG2, 2 µM) of the same sequence?
Answer: Its target mRNA inhibition is 93%.

Question: And the target mRNA inhibition ([2]; HepG2, 6 µM)?
Answer: Its target mRNA inhibition is 97%.

Question: Which target mRNA inhibition ([2]; HepG2, 4 µM) does the source give for “TTTATAGGCCAGACCTCCGC (sugars e5 d10 e5, PS)” here?
Answer: The target mRNA inhibition was 68% and 69%.

Question: What about the target mRNA inhibition ([2]; HepG2, 12 µM) of the same sequence?
Answer: The target mRNA inhibition was 82%.

Question: How did the target mRNA inhibition ([2]; HepG2, 0.1875 µM) turn out when “TTTCTACAGCTAGCAGG (sugars e2 k2 d8 k2 e3, PS)” was run?
Answer: The target mRNA inhibition was 16%.

Question: And the target mRNA inhibition ([2]; HepG2, 0.75 µM)?
Answer: Its target mRNA inhibition is 58%.

Question: And the target mRNA inhibition ([2]; HepG2, 3 µM)?
Answer: The target mRNA inhibition was 78%.

Question: What about the target mRNA inhibition ([2]; HepG2, 4 µM) of the same sequence?
Answer: Its target mRNA inhibition is 76%.

Question: And the target mRNA inhibition ([2]; HepG2, 12 µM)?
Answer: The target mRNA inhibition was 87%.

Question: “TTTCTACAGCTAGCAGG (sugars e3 k2 d7 k2 e3, PS)” was tested. Which target mRNA inhibition ([2]; HepG2, 3 µM) did it give?
Answer: Its target mRNA inhibition is 38%.

Question: Which target mRNA inhibition ([2]; HepG2, 5 µM) does the source give for “TTTCTCACTACAGGTAC (sugars e2 k2 d8 k2 e3, PS)” here?
Answer: Its target mRNA inhibition is 35%.

Question: For “TTTCTGGATAGAGGATTAAA (sugars e5 d10 e5, PS)”, which target mRNA inhibition ([2]; HepG2, 5 µM) is on record?
Answer: Its target mRNA inhibition is 6% and 14%.

Question: How did the target mRNA inhibition ([2]; HepG2, 5 µM) turn out when “TTTGGATTCTTTTAATAGCC (sugars e5 d10 e5, PS)” was run?
Answer: The target mRNA inhibition was 14%.

Question: For “TTTGTCAGCAGTCACATTGC (sugars e5 d10 e5, PS)”, which target mRNA inhibition ([2]; HepG2, 5 µM) is on record?
Answer: Its target mRNA inhibition is 26% and 16%.

Question: With “TTTTAGTTTGAATTTGG (sugars e3 k2 d7 k2 e3, PS)” as the sequence, how does the target mRNA inhibition ([2]; HepG2, 3 µM) read?
Answer: Its target mRNA inhibition is 12%.

Question: With “TTTTATTCACAGGCTTG (sugars e3 k2 d7 k2 e3, PS)” as the sequence, how does the target mRNA inhibition ([2]; HepG2, 3 µM) read?
Answer: Its target mRNA inhibition is 28%.

Question: Which target mRNA inhibition ([2]; HepG2, 3 µM) does the source give for “TTTTTCATGGACCACCA (sugars e3 k2 d7 k2 e3, PS)” here?
Answer: Its target mRNA inhibition is 76%.
